Test results published in PMC11435438, “Cyclin-Dependent Kinase 8 Represents a Positive Regulator of Cytomegalovirus Replication and a Novel Host Target for Antiviral Strategies” (Pharmaceutics, 2024).
Where two headings read alike, the source gives them in different places.

How the values were obtained:
HCMV Merlin-GFP [1] = test: HCMV Merlin-GFP replication assay in U373 cells; assay type: cell-based, human cytomegalovirus; details: Human betaherpesvirus 5, U373 MG, read-out: EC50 Merlin-GFP
Protocol: (§1) (i.e., 1 × TCID25/7d). Immediately after virus adsorption, the cells were treated with antiviral compounds or solvent control (DMSO). Infections were performed in biological quadruplicates, or as indicated for individual experiments. The cells were fixed by the addition of 150 µL 10% formalin/well 7 d p.i. (Merlin-GFP 14 d p.i.), and washed with PBS. For GFP or YFP quantitation, the Victor X4 microplate reader (PerkinElmer, Waltham, MA, USA) was primarily used, or as a very sensitive alternative, the ImageXpress® Pico device (Molecular Devices LLC, San Jose, CA, USA). Mean EC50 values of antiviral efficacy were calculated on the basis of three experimental replicates or as indicated (measurement of fluorescence values in quadruplicate), and percentage values were provided relative to the solvent control (DMSO).

HCMV AD169-GFP = HCMV AD169-GFP replication assay in U373 cells; assay type: cell-based, human cytomegalovirus; details: Human betaherpesvirus 5, AD169, U373 MG, read-out: EC50 AD169-GFP
Protocol: as §1

HCMV Merlin-GFP [2] = test: HCMV Merlin-GFP replication assay in HFFs; assay type: cell-based, human cytomegalovirus; details: Human betaherpesvirus 5, HFF, read-out: EC50 Merlin-GFP
Protocol: as §1

[3] = Neutral Red uptake cell viability assay in mock-infected HFFs; assay type: cell-based; details: human, read-out: CC50 Mock-inf.
Protocol: To address cell viability after compound treatment, a NR uptake assay was performed. Uninfected cells were seeded at equal numbers as for antiviral replication assays and treated with compounds or solvent control. The treatment was performed for HFFs (7 d), U373 (14 d), A549 (3 d), J-Jhan (14 d), and non-dox-induced iSLK.219 cells (3 d). At the end of the treatment period, 40 µg/mL of Neutral Red (NR) was added and incubated for 2–4 h at 37 °C, before the NR-containing supernatant was removed. Cells were destained using a solution containing 50% ethanol, 1% acetic acid, and 49% water. NR fluorescence was quantified using the Victor X4 microplate reader (PerkinElmer, Waltham, MA, USA) (560/630 nm). For the AB cell viability assay, which was also used to quantify virus-induced cytopathogenicity (particularly in the case of GPCMV in GPEFs), cells were seeded at equal numbers as for antiviral replication assays and incubated with a medium containing 25 ng/mL AB (resazurin; Ann Arbor, MI, USA), incubated for 6 h at 37 °C, and used for measurement identical with NR.

HCMV TB40-YFP = HCMV TB40-YFP replication assay in HFFs; assay type: cell-based, human cytomegalovirus; details: Human betaherpesvirus 5, HFF, read-out: EC50 TB40-YFP
Protocol: as §1

RhCMV-GFP = RhCMV-GFP replication assay in HFFs; assay type: cell-based, rhesus cytomegalovirus; details: in Macaca mulatta, read-out: EC50 RhCMV
Text: Similarly, 2 × 10^4 primary embryonic guinea pig fibroblasts GPEFs/96-well, or 1.35 × 10^4 HFFs/96-well, or 2 × 10^4 rat REFs/96-well, or 2 × 10^4 murine MEFs/96-well, were cultivated for infection with GPCMV-GFP, RhCMV-GFP, ChCMV, RCMV-mCherry, or MCMV-GFP, respectively (all approx. MOI of 0.01 referring to 1 × TCID25), and were used for the assessment of antiviral drug activity. To this end, cells were fixed 7 d p.i. (RCMV-mCherry 4 d p.i.), before GFP or mCherry expression was quantified using the Victor X4 microplate reader, or other viral replication markers were measured as explained for the individual experiments. ChCMV replication in HFFs was monitored and quantified by the use of Anti-Cytomegalovirus Antibody Alexa Fluor™ 488. For immunofluorescence staining with Anti-Cytomegalovirus Antibody Alexa Fluor™ 488 (Sigma Aldrich, St. Louis, MO, USA; solution in PBS with 1% FCS), the infected cells were fixed at 7 d p.i. with 10% formalin and permeabilized with 0.2% Triton-x-100. Cell nuclei were counterstained using Höchst dye to be measured using the ImageXpress Pico (Molecular Devices, LLC, San Jose, CA, USA). Mean EC50 values of antiviral efficacy were calculated on the basis of three experimental replicates or as indicated (measurement of fluorescence values in quadruplicate), and percentage values were provided relative to the solvent control (DMSO).

[4] = mock-infected (uninfected) HFFs

| SMILES | EC50 (HCMV Merlin-GFP [1]) | EC50 (HCMV AD169-GFP) | EC50 (HCMV Merlin-GFP [2]) | CC50 at 7 d [3, 4] | EC50 (HCMV TB40-YFP) | EC50 (RhCMV-GFP) | CC50 at 7 d ([3]; HFF) |
| --- | --- | --- | --- | --- | --- | --- | --- |
| CN(C)C(=O)Cn1cc(-c2ccc(-c3cncc4ccccc34)cc2)cn1 [BI-1347] | 1.4 ± 1.37 nM | 10.8 ± 5.73 nM | 0.54 ± 0.99 nM | > 100000 nM | 2.83 ± 2.3 nM | 0.4 ± 0.48 nM | – |
| Cn1ncc2cc(-c3cnc(N)c(Cl)c3N3CCC4(CCNC4=O)CC3)ccc21 [CCT-151921] | 14.7 ± 16.3 nM | 16.3 ± 7.13 nM | 1.27 ± 1.17 nM | – | 10 ± 6.33 nM | 2.48 ± 1.63 nM | > 100000 nM |
| Cc1n[nH]c2ncc(C(=O)N3CCC[C@H]3c3ccc(Cl)cc3)cc12 [MSC-2530818] | 4.47 ± 4.4 nM | 18.5 ± 11.2 nM | 5.55 ± 5.63 nM | > 100000 nM | 4.97 ± 3.3 nM | 2.17 ± 1.37 nM | – |
